This note sets out measurements from ChEMBL document CHEMBL4334442, “Effects of Acetylshikonin on the Infection and Replication of Coxsackievirus A16 in Vitro and in Vivo” (J Nat Prod, 2019).

The nature of data set [1]: Cytotoxicity against human RD cells assessed as reduction in cell viability after 12 hrs by CCK8 assay. The data set is classed as cell-based. On the technique in general: Formazan colour is commonly taken as a measure of viable cells.
Data set [2] can be described thus: Selectivity index, ratio of CC50 for cytotoxicity against human RD cells to EC50 for antiviral activity against Coxsackievirus A16 TA271 infected in human RD cells. It counts as toxicity, cell-based. Particulars: read-out: Ratio CC50/EC50.
In another data set the test system is Coxsackievirus A16. As to the kind of experiment: Antiviral activity against Coxsackievirus A16 TA271 infected in human RD cells assessed as inhibition of virus-induced cytopathic effect preincubated with viral suspension for 2 hrs followed by cell addition and measured after 24 hrs by CCK-8 assay. The data set is classed as functional, cell-based. On the technique in general: Protection from cytopathic effect is a common read-out in antiviral testing.

The structures appear in SMILES notation. pEC50: −log10 of the molar value.

Broadly, the CC50 is the concentration that lowers cell viability or growth by half. By pEC50 is commonly meant the negative decadic logarithm of the EC50, by convention in mol/L. `NC(=O)c1ncn([C@@H]2O[C@H](CO)[C@@H](O)[C@H]2O)n1` [RIBAVIRIN]: in data set [1], the CC50 at 12 h turned out to be 1480 µM. For the same compound, the selectivity ratio in data set [2] turned out to be 10.3. Further, the Activity entry with Coxsackievirus A16 is “Dose-dependent effect”. Besides, the pEC50 in the data set with Coxsackievirus A16 (Enterovirus A) is 3.84.
